Measurements: publication PMC10066365, “Nemacol is a small molecule inhibitor of C. elegans vesicular acetylcholine transporter with anthelmintic potential” (Nature Communications, 2023)

System: C. elegans DA1316
Experiment: C. elegans 3-day liquid viability assay, DA1316 avr-14; avr-15; […]
Format: in vivo, Caenorhabditis elegans
Conditions: for total animals normalized to corresponding controls: DA1316

## O=[N+]([O-])c1ccc(N2CCN(CC3CCCCC3)CC2)cc1 [Nemacol-1]
Ivermectin 0 uM + nemacol-1 5.72205e-5
  total animals normalized to corresponding controls: 117.10
Ivermectin 0 uM + nemacol-1 0.0146484
  total animals normalized to corresponding controls: 91.26
Ivermectin 0 uM + nemacol-1 3.75
  total animals normalized to corresponding controls: 106.04
Ivermectin 0 uM + nemacol-1 7.5
  total animals normalized to corresponding controls: 111.01
Ivermectin 0 uM + nemacol-1 15
  total animals normalized to corresponding controls: 100.31
Ivermectin 0 uM + nemacol-1 30
  total animals normalized to corresponding controls: 100.23
Ivermectin 0 uM + nemacol-1 60
  total animals normalized to corresponding controls: 99.19
Ivermectin 0.0009375 uM + nemacol-1 0.000114441
  total animals normalized to corresponding controls: 112.95
Ivermectin 0.0009375 uM + nemacol-1 0.0292969
  total animals normalized to corresponding controls: 124.80
Ivermectin 0.0009375 uM + nemacol-1 3.75
  total animals normalized to corresponding controls: 113.26
Ivermectin 0.0009375 uM + nemacol-1 7.5
  total animals normalized to corresponding controls: 122.67
Ivermectin 0.0009375 uM + nemacol-1 15
  total animals normalized to corresponding controls: 99.45
Ivermectin 0.0009375 uM + nemacol-1 30
  total animals normalized to corresponding controls: 96.12
Ivermectin 0.0009375 uM + nemacol-1 60
  total animals normalized to corresponding controls: 95.59
Ivermectin 0.001875 uM + nemacol-1 0.000228882
  total animals normalized to corresponding controls: 117.74
Ivermectin 0.001875 uM + nemacol-1 0.0585938
  total animals normalized to corresponding controls: 95.40
Ivermectin 0.001875 uM + nemacol-1 3.75
  total animals normalized to corresponding controls: 107.81
Ivermectin 0.001875 uM + nemacol-1 7.5
  total animals normalized to corresponding controls: 110.79
Ivermectin 0.001875 uM + nemacol-1 15
  total animals normalized to corresponding controls: 103.40
Ivermectin 0.001875 uM + nemacol-1 30
  total animals normalized to corresponding controls: 87.76
Ivermectin 0.001875 uM + nemacol-1 60
  total animals normalized to corresponding controls: 95.73
Ivermectin 0.00375 uM + nemacol-1 0.000457764
  total animals normalized to corresponding controls: 105.05
Ivermectin 0.00375 uM + nemacol-1 0.117188
  total animals normalized to corresponding controls: 110.64
Ivermectin 0.00375 uM + nemacol-1 3.75
  total animals normalized to corresponding controls: 115.16
Ivermectin 0.00375 uM + nemacol-1 7.5
  total animals normalized to corresponding controls: 104.58
Ivermectin 0.00375 uM + nemacol-1 15
  total animals normalized to corresponding controls: 92.41
Ivermectin 0.00375 uM + nemacol-1 30
  total animals normalized to corresponding controls: 95.26
Ivermectin 0.00375 uM + nemacol-1 60
  total animals normalized to corresponding controls: 95.05
Ivermectin 0.03 uM + nemacol-1 0.00366211
  total animals normalized to corresponding controls: 117.10
Ivermectin 0.03 uM + nemacol-1 0.9375
  total animals normalized to corresponding controls: 95.99
Ivermectin 0.03 uM + nemacol-1 3.75
  total animals normalized to corresponding controls: 106.91
Ivermectin 0.03 uM + nemacol-1 7.5
  total animals normalized to corresponding controls: 93.50
Ivermectin 0.03 uM + nemacol-1 15
  total animals normalized to corresponding controls: 78.16
Ivermectin 0.03 uM + nemacol-1 30
  total animals normalized to corresponding controls: 62.13
Ivermectin 0.03 uM + nemacol-1 60
  total animals normalized to corresponding controls: 54.19
Ivermectin 0.06 uM + nemacol-1 0.00732422
  total animals normalized to corresponding controls: 74.90
Ivermectin 0.06 uM + nemacol-1 1.875
  total animals normalized to corresponding controls: 82.85
Ivermectin 0.06 uM + nemacol-1 3.75
  total animals normalized to corresponding controls: 87.36
Ivermectin 0.06 uM + nemacol-1 7.5
  total animals normalized to corresponding controls: 84.34
Ivermectin 0.06 uM + nemacol-1 15
  total animals normalized to corresponding controls: 45.86
Ivermectin 0.06 uM + nemacol-1 30
  total animals normalized to corresponding controls: 52.87
Ivermectin 0.06 uM + nemacol-1 60
  total animals normalized to corresponding controls: 31.96
avr-14, avr-15, glc-1 triple mutant
  synergy with Ivermectin in triple mutant compared to wild type: 0.6 fold
